Source: patent US12187723B2 (BRISTOL-MYERS SQUIBB COMPANY, priority 2019, dated 2025)
Counter-ions that a name gives are not always drawn.

Tests used:
human TLR8 = molecular target: T1, human TLR8 (Homo sapiens, UniProt Q9NR97); experiment: TLR8 inhibition reporter assay (HEK-Blue SEAP); type: cell-based; conditions: HEK-Blue cells overexpressing human TLR8, R848 15.9 μM, 22 hour incubation
T1 construct: host or cells: HEK-Blue cells
T1 sequence (Q9NR97 27-1041): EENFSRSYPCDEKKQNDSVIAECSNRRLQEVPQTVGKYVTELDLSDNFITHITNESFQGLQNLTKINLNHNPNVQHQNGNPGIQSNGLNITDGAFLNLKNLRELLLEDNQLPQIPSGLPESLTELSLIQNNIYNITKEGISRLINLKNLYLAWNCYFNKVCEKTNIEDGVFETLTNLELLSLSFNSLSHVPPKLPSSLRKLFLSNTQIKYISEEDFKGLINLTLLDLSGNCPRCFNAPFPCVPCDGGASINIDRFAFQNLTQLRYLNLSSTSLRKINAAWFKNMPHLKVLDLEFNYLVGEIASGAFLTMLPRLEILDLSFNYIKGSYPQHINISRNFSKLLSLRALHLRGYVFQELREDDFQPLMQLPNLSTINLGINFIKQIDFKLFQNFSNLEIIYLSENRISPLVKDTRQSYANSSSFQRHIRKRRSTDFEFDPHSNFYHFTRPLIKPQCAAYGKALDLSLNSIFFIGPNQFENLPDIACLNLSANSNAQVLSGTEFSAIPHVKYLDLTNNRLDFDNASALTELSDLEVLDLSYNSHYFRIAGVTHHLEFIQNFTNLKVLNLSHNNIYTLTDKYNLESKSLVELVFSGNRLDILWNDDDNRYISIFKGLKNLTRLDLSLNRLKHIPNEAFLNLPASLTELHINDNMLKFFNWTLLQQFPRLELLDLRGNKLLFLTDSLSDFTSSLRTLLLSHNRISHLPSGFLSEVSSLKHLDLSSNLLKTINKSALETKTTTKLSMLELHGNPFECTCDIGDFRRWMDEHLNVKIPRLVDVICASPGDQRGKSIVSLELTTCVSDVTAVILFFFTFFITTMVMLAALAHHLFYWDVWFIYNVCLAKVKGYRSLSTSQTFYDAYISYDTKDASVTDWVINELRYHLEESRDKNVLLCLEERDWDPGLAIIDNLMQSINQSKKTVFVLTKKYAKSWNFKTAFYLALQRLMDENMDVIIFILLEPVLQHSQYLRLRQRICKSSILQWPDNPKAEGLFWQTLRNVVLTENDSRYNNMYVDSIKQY
How it was run: (§1)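 Human TLR7/8/9 HEK-Blue reporter lines; dose range 0.05 nM–50 μM; 30 min RT preincubation; stimulus gardiquimod 7.5 μM / R848 15.9 μM / ODN2006 5 nM respectively; 22 h, 37 °C; SEAP detected colorimetrically.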

human TLR9 = molecular target: T2, human TLR9 (Homo sapiens, UniProt Q9NR96); experiment: TLR9 inhibition reporter assay (HEK-Blue SEAP); type: cell-based; conditions: HEK-Blue cells overexpressing human TLR9, ODN2006 5 nM, 22 hour incubation
T2 construct: host or cells: HEK-Blue cells
T2 sequence (Q9NR96 26-1032): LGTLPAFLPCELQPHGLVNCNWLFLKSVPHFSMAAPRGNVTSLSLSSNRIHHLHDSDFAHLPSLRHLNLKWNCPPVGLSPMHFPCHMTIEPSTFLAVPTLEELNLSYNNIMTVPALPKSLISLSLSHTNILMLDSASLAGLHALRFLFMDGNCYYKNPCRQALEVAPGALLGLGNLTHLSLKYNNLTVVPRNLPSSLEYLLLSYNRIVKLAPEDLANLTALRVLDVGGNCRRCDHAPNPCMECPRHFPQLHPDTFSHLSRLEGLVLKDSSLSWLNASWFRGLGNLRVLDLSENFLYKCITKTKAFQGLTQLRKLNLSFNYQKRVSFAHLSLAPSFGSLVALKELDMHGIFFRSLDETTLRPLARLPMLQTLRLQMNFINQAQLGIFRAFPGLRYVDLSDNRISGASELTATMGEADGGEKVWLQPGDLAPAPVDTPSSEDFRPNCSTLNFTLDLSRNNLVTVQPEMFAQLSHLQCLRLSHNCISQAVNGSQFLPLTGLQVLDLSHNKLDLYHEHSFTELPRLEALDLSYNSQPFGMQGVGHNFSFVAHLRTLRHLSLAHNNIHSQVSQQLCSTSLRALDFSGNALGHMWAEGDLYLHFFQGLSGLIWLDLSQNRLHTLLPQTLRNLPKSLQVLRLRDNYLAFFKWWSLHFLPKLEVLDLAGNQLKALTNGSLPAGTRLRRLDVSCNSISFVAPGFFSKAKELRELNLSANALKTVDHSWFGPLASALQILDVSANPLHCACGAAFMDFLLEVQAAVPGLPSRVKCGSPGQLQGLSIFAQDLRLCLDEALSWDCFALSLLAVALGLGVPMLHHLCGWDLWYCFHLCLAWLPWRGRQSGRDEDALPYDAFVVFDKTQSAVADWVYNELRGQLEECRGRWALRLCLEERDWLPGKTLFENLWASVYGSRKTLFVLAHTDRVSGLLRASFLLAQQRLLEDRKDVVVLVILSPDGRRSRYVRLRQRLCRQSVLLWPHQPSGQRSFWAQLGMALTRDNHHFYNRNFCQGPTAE
How it was run: as §1

| SMILES | IC50 (human TLR8) [nM] | IC50 (human TLR9) [nM] |
| --- | --- | --- |
| COc1cc(-c2cc3[nH]c(=O)n(C4CCC(N5C[C@@H](F)[C@@H](F)C5)CC4)c3cc2C(C)C)cn2ncnc12 (single isomer, unassigned) [Example 292] | 0.13 | 28900 |
| Cc1cc2c(cc1-c1cc(C)c3ncnn3c1)[nH]c(=O)n2[C@H]1CC[C@H](N)CC1 [1 EF, 1-((1r,4r)-4-aminocyclohexyl)-6-methyl-5-(8-methyl-[1,2,4]triazolo[1,5-a]pyridin-6-yl)-1,3-dihydro-2H-benzo[d]imidazol-2-one] | 33.2 | 2310 |
| COc1c(C)c(-c2cc3[nH]c(=O)n(C4CCC(N5CC6(COC6)C5)CC4)c3cc2C(C)C)cn2ncnc12 (single isomer, unassigned) [Example 269, 1-(4-(2-oxa-6-azaspiro[3.3]heptan-6-yl)cyclohexyl)-6-isopropyl-5-(8-methoxy-7-methyl-[1,2,4]triazolo[1,5-a]pyridin-6-yl)-1,3-dihydro-2H-benzo[d]imidazol-2-one] | 1.58 | 25600 |
| COc1cc(-c2cc3[nH]c(=O)n(C4CCC(N5CCC(OC)C5)CC4)c3cc2C(C)C)cn2ncnc12 (stereo not drawn) [Example 285, 6-isopropyl-5-(8-methoxy-[1,2,4]triazolo[1,5-a]pyridin-6-yl)-1-(4-(3-methoxypyrrolidin-1-yl)cyclohexyl)-1,3-dihydro-2H-benzo[d]imidazol-2-one] | 0.13 | 8310 |
| COc1cc(-c2cc3[nH]c(=O)n(C4CCC(N5CCC(F)(F)C5)CC4)c3cc2C(C)C)cn2ncnc12 (single isomer, unassigned) [Example 295, 1-(4-(3,3-difluoropyrrolidin-1-yl)cyclohexyl)-6-isopropyl-5-(8-methoxy-[1,2,4]triazolo[1,5-a]pyridin-6-yl)-1,3-dihydro-2H-benzo[d]imidazol-2-one] | 7.9 | 22200 |
| COC1CN(C2CCC(n3c(=O)[nH]c4cc(-c5cn6ncnc6c(C)c5C)c(C(C)C)cc43)CC2)C1 (single isomer, unassigned) [Example 277, 5-(7,8-dimethyl-[1,2,4]triazolo[1,5-a]pyridin-6-yl)-6-isopropyl-1-(4-(3-methoxyazetidin-1-yl)cyclohexyl)-1,3-dihydro-2H-benzo[d]imidazol-2-one] | 0.74 | 7380 |
| Cc1c(-c2cc3[nH]c(=O)n(C4CCC(N5CCCC(F)C5)CC4)c3cc2C(C)C)cn2ncnc2c1C (stereo not drawn) [Example 273, 5-(7,8-dimethyl-[1,2,4]triazolo[1,5-a]pyridin-6-yl)-1-(4-(3-fluoropiperidin-1-yl)cyclohexyl)-6-isopropyl-1,3-dihydro-2H-benzo[d]imidazol-2-one] | 0.87 | 13500 |
| Cc1cc2c(cc1-c1cc(C)c3ncnn3c1)[nH]c(=O)n2[C@H]1CC[C@H](NC(C)C)CC1 [Example 25, 1-((1r,4s)-4-(isopropylamino)cyclohexyl)-6-methyl-5-(8-methyl-[1,2,4]triazolo[1,5-a]pyridin-6-yl)-1,3-dihydro-2H-benzo[d]imidazol-2-one] | 11.1 | 4350 |
| COCCNC1CCC(n2c(=O)[nH]c3cc(-c4cn5ncnc5c(OC)c4C)c(C(C)C)cc32)CC1 (stereo not drawn) [Example 258] | 0.6 | 24300 |
| Cc1cc2c(cc1-c1cc(C)c3ncnn3c1)[nH]c(=O)n2[C@H]1CC[C@@H](NC(C)C)CC1 [Example 22, 1-((1s,4s)-4-(isopropylamino)cyclohexyl)-6-methyl-5-(8-methyl-[1,2,4]triazolo[1,5-a]pyridin-6-yl)-1,3-dihydro-2H-benzo[d]imidazol-2-one] | 4.08 | 4630 |
| Cc1c(-c2cc3[nH]c(=O)n(C4CCC(N5CCC6(CC5)COC6)CC4)c3cc2C(C)C)cn2ncnc2c1C (single isomer, unassigned) [Example 283, 1-(4-(2-oxa-7-azaspiro[3.5]nonan-7-yl)cyclohexyl)-5-(7,8-dimethyl-[1,2,4]triazolo[1,5-a]pyridin-6-yl)-6-isopropyl-1,3-dihydro-2H-benzo[d]imidazol-2-one] | 0.09 | 5340 |
| COc1cc(-c2cc3[nH]c(=O)n(C4CCNCC4)c3cc2C)cn2ncnc12 [1 E, 5-(8-methoxy-[1,2,4]triazolo[1,5-a]pyridin-6-yl)-6-methyl-1-(piperidin-4-yl)-1H-benzo[d]imidazol-2(3H)-one, TFA] | 225 | 2640 |
| COc1cc(-c2cc3[nH]c(=O)n(C4CCC(N5CC(F)(F)C5)CC4)c3cc2C(C)C)cn2ncnc12 (single isomer, unassigned) [Example 296] | 3.4 | > 50000 |
| COc1cc(-c2cc3[nH]c(=O)n(C4CCC(N5CCSCC5)CC4)c3cc2C(C)C)cn2ncnc12 (stereo not drawn) [Example 251, 6-isopropyl-5-(8-methoxy-[1,2,4]triazolo[1,5-a]pyridin-6-yl)-1-(4-thiomorpholinocyclohexyl)-1,3-dihydro-2H-benzo[d]imidazol-2-one] | 0.95 | 11900 |
| COc1cc(-c2cc3[nH]c(=O)n(C4CCC(N(C)CCC(F)(F)F)CC4)c3cc2C(C)C)cn2ncnc12 (single isomer, unassigned) [Example 248, 6-isopropyl-5-(8-methoxy-[1,2,4]triazolo[1,5-a]pyridin-6-yl)-1-(4-(methyl(3,3,3-trifluoropropyl)amino)cyclohexyl)-1,3-dihydro-2H-benzo[d]imidazol-2-one] | 0.17 | 9770 |
| Cc1cc2c(cc1-c1cc(C)c3ncnn3c1)[nH]c(=O)n2[C@@H]1CCCN(C2CCOCC2)C1 [Example 27, (R)-6-methyl-5-(8-methyl-[1,2,4]triazolo[1,5-a]pyridin-6-yl)-1-(1-(tetrahydro-2H-pyran-4-yl)piperidin-3-yl)-1,3-dihydro-2H-benzo[d]imidazol-2-one] | 50 | 8500 |
| COc1cc(-c2cc3[nH]c(=O)n([C@@H]4CCCNC4)c3cc2C(F)(F)F)cn2ncnc12 [110 F, (R)-5-(8-methoxy-[1,2,4]triazolo[1,5-a]pyridin-6-yl)-1-(piperidin-3-yl)-6-(trifluoromethyl)-1,3-dihydro-2H-benzo[d]imidazol-2-one] | 14.8 | 2710 |
| COc1c(C)c(-c2cc3[nH]c(=O)n(C4CCC(N5CCCOCC5)CC4)c3cc2C(C)C)cn2ncnc12 (single isomer, unassigned) [Example 262, 1-(4-(1,4-oxazepan-4-yl)cyclohexyl)-6-isopropyl-5-(8-methoxy-7-methyl-[1,2,4]triazolo[1,5-a]pyridin-6-yl)-1,3-dihydro-2H-benzo[d]imidazol-2-one] | 0.68 | 15500 |
